Experimental data published in PMC6434189, “Peperomin E and its orally bioavailable analog induce oxidative stress-mediated apoptosis of acute myeloid leukemia progenitor cells by targeting thioredoxin reductase” (Redox Biology, 2019).

How the values were obtained:
Assay type in all cases: cell-based, human
[1] = tested on: TrxR1 KD cells (KG-1a CD34+); experiment: CCK-8 viability in TrxR1 knockdown KG-1a CD34+ cells; settings: 48 h
Protocol: (§1) Unless otherwise mentioned, 2 × 10^4 cells were seeded at 96-well plates (Corning, New York, USA) in the IMDM-based serum-free media for 1 h. Then, the cells were incubated with different concentrations of PepE and DMAPE at 37 °C in a 5% CO2 incubator for 48 h. At the end of the treatment, 10 μL CCK-8 solution was added to each well and incubated for an additional 2 h at 37 °C, and the absorbance at 450 nm was measured with a microplate reader (Thermo Scientific, Multiskan GO, Finland). Inhibition ratio (%) was calculated as [(absorbance of control − absorbance of the test sample)/absorbance of control] x 100%.
For TrxR1 knockdown experiment, KG-1a CD34^+ cells were seeded in a six-well plate at 2.5 × 10^5/well in antibiotic-free IMDM medium for 24 h; then cells were washed once with 2 ml of shRNA transfection medium (Santa Cruz Biotech, sc-108062) and transfected with either TrxR1 shRNA plasmid (Santa Cruz Biotech, sc-36750-SH) or Control shRNA plasmid (negative control, Santa Cruz Biotech, sc-108060) according to the manufacturer's instructions. Briefly, for each transfection, 0.1 ml of shRNA (TrxR1 or control) duplex solution (containing 1 μg of shRNA plasmids) and 0.1 ml of transfection reagent (Santa Cruz Biotech, sc-108061) were gently mixed and incubated at room temperature for 30 min. […] The knockdown efficiencies were evaluated by western blot and RT-qPCR analyses.

[2] = tested on: primary CD34+ AML cells; experiment: CCK-8 cell viability assay on primary CD34+ AML cells; settings: for viability at 6 µM: Homo sapiens, 48 h, CCK-8, read-out: cells viable (average)
Protocol: (§2) The mononuclear cells were further enriched for CD34 positive cells using the MACS CD34 MicroBead kit following the manufacturer's protocol. Enriched CD34 cell-purity was measured by flow cytometry-based quantification of cells stained using an anti-CD34-FITC antigen. Isolated CD34^+ cells were pre-incubated in the IMDM-based serum-free media for 1 h before the addition of drugs. PepE was dissolved in DMSO to make a 100 mM stock solution and stored in aliquots at – 20 °C. The 100 mM stock solution was diluted with DMSO to 10 mM and then diluted with PBS to 1 mM before treating the cells at the indicated concentrations. DMAPE and Ara-C were diluted in PBS to 1 mM concentration before use.
as §1

[3] = tested on: KG-1a CD34+ cells; experiment: Intracellular ROS measurement (DCFH-DA / DHE); settings: 6 μM; blocked by NAC pretreatment
Protocol: KG-1a CD34^+ cells and other sorted primary APCs (5 × 10^5) were plated in FBS-free IMDM medium in 12-well plates (Corning) and were treated with 5 μM of Ara-C and 6 μM PepE or DMAPE in the presence or absence of 5 mM NAC for 2 h. The ROS indicator DCFH-DA (10 μM) or DHE (10 μM) in fresh FBS-free medium was added to each well, and further incubated in the dark for 30 min at 37 °C. The cells were visualized and photographed under an Olympus inverted fluorescence microscope IX-73 (Tokyo, Japan) with Metamorph software (Molecular Devices, Downingtown, PA, USA).

[4] = tested on: CD34+ NBM cells and hBMSCs; experiment: CCK-8 cell viability assay on normal CD34+ NBM cells and hBMSCs; settings: 48 h; for toxicity on control CD34+ NBM cells and hBMSCs: 6 μM; for effects on NBM and hBMSC cells: 12 μM
Protocol: as §2, §1

[5] = tested on: Trx1 in KG-1a CD34+ cells; experiment: Trx1 redox state assay (PAO-Sepharose pull down); settings: 5 μM, 24 h
Protocol: The redox state of Trx1 was determined using Liu's method. Phenylarsine oxide (PAO)-Sepharose was prepared by immobilization of PAO on Sepharose 4B according to Liu's report. The reduced form was pulled down on the Sepharose, while the oxidized form remained in the solution. Briefly, the KG-1a CD34^+ cells were treated with 5 μM PepE/DMAPE or vehicle control (DMSO) for 24 h. The cellular proteins were extracted by RIPA buffer and quantified by the Bradford method. The fully oxidized and reduced controls were prepared by incubating the non-treated cell lysate with diamide (2 mM) and TCEP (2 mM) for 1 h at 37 °C, respectively. The cell lysates were then incubated with PAO-sepharose on a rotating shaker for 1 h at room temperature. The supernatant was collected and the PAO-sepharose was washed with Tris-EDTA buffer. Then, the reduced Trx1 was eluted using Tris-EDTA buffer containing DPMS (10 mM). All samples were separated on SDS-PAGE and electrotransferred to PVDF membrane for western blot analyses. The bands were analyzed using Gel-pro 32 software.

[6] = tested on: TrxR1 overexpressed KG-1a cells (ACTV cells); experiment: CCK-8 viability in TrxR1 overexpressed KG-1a cells; settings: 48 h
Protocol: as §1
For TrxR1 overexpression experiment, KG-1a CD34^+ cells were seeded in a six-well plate at 2.5 × 10^5/well in antibiotic-free IMDM medium for 24 h, then cells were transfected with TrxR1 CRISPR activation plasmids (control CRISPR plasmids as a negative control) according to the manufacturer's instructions. Briefly, for each transfection, 0.15 ml of the Plasmid DNA solution (containing 3 μg of TrxR1 activation or control DNA plasmids) and 0.15 ml of diluted UltraCruz transfection reagent (Santa Cruz Biotech, sc-395739) were gently mixed and added to the cells. […] The activation efficiencies were evaluated by western blot and RT-qPCR analyses.

C=C1C(=O)OC[C@H]1C(c1cc(OC)c2c(c1)OCO2)c1cc(OC)c2c(c1)OCO2 [PepE, Peperomin E] was tested, and the “potency toward TrxR1 KD cells compared to CTRL KD cells” value [1] was “elevated potency”, the “concentration range inducing apoptosis of human primary CD34+ AML cells” value [2] was 4 to 6 µM and the viability at 6 µM [2] was 24%. The “ROS level by DCFH-DA staining” value [3] was “burst of ROS”, the “toxicity on control CD34+ NBM cells and hBMSCs” value [4] was “reduced toxicities” and the “effects on NBM and hBMSC cells” value [4] was “modest effects”. The “oxidized form of Trx” value [5] was “significantly increased” and the “toxicity against ACTV cells vs CTRL ACTV cells” value [6] was “significant lower toxicity”.

COc1cc(C(c2cc(OC)c3c(c2)OCO3)[C@@H]2COC(=O)[C@H]2CN(C)CCO)cc2c1OCO2 [DMAPE, (2S,3S)-6-Methyl (hydroxyethyl) amino-2,6-dihydropeperomin E] was tested, and the “potency toward TrxR1 KD cells compared to CTRL KD cells” value [1] was “elevated potency”, the viability at 6 µM [2] was 28.9% and the “ROS level by DCFH-DA staining” value [3] was “burst of ROS”. The “toxicity on control CD34+ NBM cells and hBMSCs” value [4] was “reduced toxicities”, the “effects on NBM and hBMSC cells” value [4] was “relatively safe” and the “oxidized form of Trx” value [5] was “significantly increased”. The “toxicity against ACTV cells vs CTRL ACTV cells” value [6] was “significant lower toxicity”.
